Data reported in PMC7501296, “Rapid and direct control of target protein levels with VHL-recruiting dTAG molecules” (Nature Communications, 2020).

Tests used:
CDK9 = molecular target: T1, CDK9 (Homo sapiens, UniProt P50750); assay: Immunoblot, co-treatment with THAL-SNS-032 and/or dTAGV-1 in PATU-8902 LACZ-FKBP12F36V clone; assay type: cell-based
T1 construct: endogenous in cells; host or cells: PATU-8902 LACZ-FKBP12^F36V clone
Experimental: PATU-8902 LACZ-FKBP12^F36V and FKBP12^F36V-KRAS^G12V; KRAS^−/− cells and 293T cells were lysed with RIPA buffer supplemented with cOmplete protease inhibitors (Roche), PhosSTOP phosphatase inhibitors (Roche), and 0.1% benzonase (Novagen). Proteins were separated using NuPAGE Bolt^TM Bis–Tris gels (Thermo Fisher Scientific) and transferred to nitrocellulose membranes, which were blocked with Odyssey Blocking Buffer (LI-COR) and incubated with primary antibodies overnight. Membranes were washed three times with TBS-T, incubated with the appropriate fluorescently labeled infrared secondary antibodies, washed again three times with TBS-T, and assessed using an Odyssey CLx Imager (LI-COR)[6],[15]. EWS502 cells were lysed with Cell Lysis Buffer (Cell Signaling Technology) supplemented with cOmplete protease inhibitors (Roche). Proteins were separated using SDS-PAGE gels and transferred to PVDF membranes, which were blocked with 5% milk in TBS-T and incubated with primary antibodies overnight. Membranes were washed five times with TBS-T, incubated with the appropriate horseradish peroxidase-conjugated secondary antibodies, washed again five times with TBS-T, and imaged. The following primary antibodies were employed in this study: HA (Cell Signaling Technology #3724 and #2367, dilution at 1:1000), phospho-ERK1/2 T202/Y204 (Cell Signaling Technology #4370, dilution at 1:1000), ERK1/2 (Cell Signaling Technology #4696, dilution at 1:1000), phospho-AKT S473 (Cell Signaling Technology #4060, dilution at 1:1000), AKT (Cell Signaling Technology #2920, dilution at 1:1000), FKBP12 (Abcam #ab24373, dilution at 1:1000), GFP (Cell Signaling Technology #2555, dilution at 1:1000), FLI (Abcam #ab15289, dilution at 1:2000), NKX2-2 (Abcam #ab187375, dilution at 1:1000), GAPDH (Cell Signaling Technology #2118, dilution at 1:3000), Vinculin (Cell Signaling Technology #13901, dilution at 1:3000), β-Actin (Cell Signaling Technology #58169, dilution at 1:3000), and α-Tubulin (Cell Signaling Technology #3873, dilution at 1:5000). […]

LACZ-FKBP12^F36V = assay: Immunoblot of PATU-8902 LACZ-FKBP12F36V clone; assay type: cell-based; conditions: PATU-8902 LACZ-FKBP12F36V cells, 4 h
Experimental: PATU-8902 LACZ-FKBP12^F36V and FKBP12^F36V-KRAS^G12V; KRAS^−/− cells and 293T cells were lysed with RIPA buffer supplemented with cOmplete protease inhibitors (Roche), PhosSTOP phosphatase inhibitors (Roche), and 0.1% benzonase (Novagen). Proteins were separated using NuPAGE Bolt^TM Bis–Tris gels (Thermo Fisher Scientific) and transferred to nitrocellulose membranes, which were blocked with Odyssey Blocking Buffer (LI-COR) and incubated with primary antibodies overnight. Membranes were washed three times with TBS-T, incubated with the appropriate fluorescently labeled infrared secondary antibodies, washed again three times with TBS-T, and assessed using an Odyssey CLx Imager (LI-COR)[6],[15]. EWS502 cells were lysed with Cell Lysis Buffer (Cell Signaling Technology) supplemented with cOmplete protease inhibitors (Roche). Proteins were separated using SDS-PAGE gels and transferred to PVDF membranes, which were blocked with 5% milk in TBS-T and incubated with primary antibodies overnight. Membranes were washed five times with TBS-T, incubated with the appropriate horseradish peroxidase-conjugated secondary antibodies, washed again five times with TBS-T, and imaged. […]

CC[C@H](C(=O)N1CCCC[C@H]1C(=O)O[C@H](CCc1ccc(OC)c(OC)c1)c1ccccc1OCC(=O)NCCCCCCC(=O)N[C@H](C(=O)N1C[C@H](O)C[C@H]1C(=O)N[C@@H](C)c1ccc(-c2scnc2C)cc1)C(C)(C)C)c1cc(OC)c(OC)c(OC)c1 [dTAG^V-1]
Degradation of both LACZ-FKBP12F36V and CDK9 on co-treatment (CDK9; co-treatment dTAGV-1 + THAL-SNS-032, 24 h): pronounced degradation
CDK9 protein levels (CDK9; dTAGV-1 alone, 24 h): did not alter
Degradation of FKBP12F36V-fusion (LACZ-FKBP12F36V), immunoblot (LACZ-FKBP12^F36V): effective degradation
